# In US20150037257A1, “COMPOSITIONS AND METHODS FOR HIGH-THROUGHPUT SCREENING IN SKIN FIBROBLASTS WITH AN ALPHA-SYNUCLEIN TRIPLICATION” (priority 2011, published 2015):
# Assays:
# Type in all cases: cell-based, human
# control fibroblasts [1] = assay: Dose-response test of control fibroblasts with PQ (cell death); conditions: 300 uM PQ, 48 hrs
# Method: (§1) Cell viability was assessed using the CytoTox-ONE Homogeneous Membrane integrity Assay kit (Cat. No 07890, Promega, Madison, Wis.), which is a fluorescent measure of lactate dehydrogenase (LDH) released from cells with a damaged membrane by conversion of resazurin into resorufin. The assay was performed in a 96-well format according to the manufacturers' instructions. Briefly, 10,000 cells/well of control cells and 12,500 cells/well of SNCA-Tri fibroblasts were used for paraquat (PQ) exposure experiments; 12,500 cells/well were used in siRNA knockout experiments. Cell number was measured using WST-1 proliferation reagent (Roche, Indianapolis, Ind.) in a parallel plate.
# (§2) Cells were exposed to freshly prepared PQ (N,N′-dimethyl-4,4′-bipyridinium dichloride) (Sigma, M2254) at 300 uM final concentration in culture media for 48 hours without media change prior to analysis.
# control fibroblasts [2] = assay: Cell viability: LDH release (CytoTox-ONE) after paraquat exposure; conditions: controls, 300 uM PQ, 48 hrs
# Method: as §1, §2
# SNCA-Tri fibroblasts [3] = assay: Cell viability: LDH release (CytoTox-ONE) after paraquat exposure / siRNA knockdown; conditions: 300 uM PQ, 48 hrs
# Method: as §1, §2
# (§3) The sequence of SNCA1 siRNA were used after the method of Fountaine et al, 2008. Custom siRNA (Dharmacon, Lafayette, Colo.) at a concentration of 75 nM (scrambled or α-syn targeted siRNA, SNCA1) was transfected at 90% cell confluency using […] Lipofectamine™ 2000 (Invitrogen) according to the manufacturer's instruction. Transfection efficiency was tested to be >90% with siGLO Cyclophilin B control siRNA (Dharmacon) in control fibroblasts.
# control fibroblasts [4] = assay: Cellular ATP levels (ATPlite) after paraquat exposure; conditions: controls, 300 uM PQ, 48 hrs
# Method: (§4) Cellular adenosine triphosphate (ATP) levels were measured using the ATPlite kit (Cat. No. 6016943, Perkin Elmer, Waltham, Mass.) based on the reaction of ATP with added lucifcrase and D-luciferin, according to the manufacturer's instruction. ATP synthesis assays were performed on digitonin-treated fibroblasts. Briefly, for paraquat (PQ) exposure, cells were plated (6,000 cells/well in control cells and 7,500 cells/well in SNCA-Tri cells) for 24 hours prior to exposure to PQ.
# as §2
# SNCA-Tri fibroblasts [5] = assay: Cellular ATP levels (ATPlite) after paraquat exposure / siRNA knockdown; conditions: 300 uM PQ, 48 hrs
# Method: as §4, §2, §3
# control fibroblasts [6] = assay: Mitochondrial membrane potential (TMRM) after paraquat exposure; conditions: controls, 300 uM PQ, 48 hrs
# Method: (§5) Fibroblasts were plated in 96-well plates (6,000 cells/well in the control and 7,500 cells/well in SNCA-Tri cells) and were used for paraquat (PQ) exposure experiments. After 24 hours, cells were changed to galactose medium and cultured for another 24 hours. The mitochondrial membrane potential was measured using the fluorescent dye tetramethylrhodamine methyl ester (TMRM) (Invitrogen) at the final concentration of 150 nM. Cells were incubated for 5 minutes at 37° C. and then washed with phosphate buffered saline (PBS). To remove the plasma membrane contribution from the TMRM fluorescence, each assay was performed in parallel with 10 uM carbonyl cyanide 3-chlorophenylhydrazone (CCCP) (Sigma, St Louis, Mo.), which collapses the mitochondrial membrane potential. All data were expressed as the total TMRM fluorescence minus the CCCP-treated TMRM fluorescence. Cell number was measured using WST-1 proliferation reagent in a parallel plate, according to the manufacturer's instruction. All measurements were performed on a TECAN GENios.
# as §2
# SNCA-Tri fibroblasts [7] = assay: Mitochondrial membrane potential (TMRM) after paraquat exposure / siRNA knockdown; conditions: 300 uM PQ, 48 hrs
# Method: as §5, §2, §3
# [8] = test system: α-syn mRNA expression in SNCA-Tri fibroblasts; assay: α-syn mRNA expression by qPCR after paraquat exposure
# Method: as §2
# (§6) Total RNA was extracted from fibroblasts using TRIzol® (Invitrogen). cDNA from 0.5 ug total RNA was synthesized by reverse transcriptase (iScript cDNA synthesis kit, BioRad, Hercules, Calif.). Primer sequences of SNCA are SNCA-F: AGTTGTGGCTGCTGCTGAG (SEQ ID NO:1) and SNCA-R: […] (SEQ ID NO:2) and of beta-actin are HuActin-F: […] (SEQ ID NO:3) and HuActin-R: GCATTTGCGGTGGACGAT (SEQ ID NO:4). The PCR products of SNCA and beta-actin (as internal control) were amplified using the SYBR Green PCR Master Mix (Applied Biosystems, Carlsbad, Calif.). Amplification of the PCR products was quantitatively measured by the ABI 7000 Sequence Detection System (Applied Biosystems). 2^−ΔΔCt method was used in all quantitative PCR analyses.
# [9] = test system: α-syn mRNA expression in control fibroblasts; assay: as above; conditions: controls, vs naive expression
# Method: as §2, §6
smiles,measurement,setting,value
"C[n+]1ccc(-c2cc[n+](C)cc2)cc1.[Cl-].[Cl-] [PQ, N,N′-dimethyl-4,4′-bipyridinium dichloride]",cell death,control fibroblasts [1],about 25%
same,"LDH release, % change untreated vs PQ exposed",control fibroblasts [2],27%
same,"LDH release change, fold difference SNCA-Tri vs controls",SNCA-Tri fibroblasts [3]; 42% vs 27%,1.6 fold
same,increase of LDH release in SNCA-Tri compared to controls after PQ exposure,SNCA-Tri fibroblasts [3]; SNCA-Tri vs controls,46%
same,"LDH release, % change (increase) untreated vs PQ exposed",SNCA-Tri fibroblasts [3]; SNCA-Tri,42%
same,"Cellular ATP decrease, untreated vs PQ exposed",control fibroblasts [4],33%
same,"Cellular ATP change, fold change SNCA-Tri vs controls",SNCA-Tri fibroblasts [5]; 56% vs 33%,1.7 fold
same,decrease of cellular ATP in SNCA-Tri compared to controls after PQ exposure,SNCA-Tri fibroblasts [5]; SNCA-Tri vs controls,59%
same,"Cellular ATP decrease, untreated vs PQ exposed",SNCA-Tri fibroblasts [5]; SNCA-Tri,56%
same,"Mitochondrial membrane potential decrease, untreated vs PQ exposed",control fibroblasts [6],40%
same,"Mitochondrial membrane potential change, fold change SNCA-Tri vs controls",SNCA-Tri fibroblasts [7]; 61% vs 40%,1.5 fold
same,reduction of mitochondrial membrane potential in SNCA-Tri compared to controls after PQ exposure,SNCA-Tri fibroblasts [7]; SNCA-Tri vs controls,51%
same,"Mitochondrial membrane potential decrease, untreated vs PQ exposed",SNCA-Tri fibroblasts [7]; SNCA-Tri,61%
same,increase of α-syn mRNA expression after PQ exposure,"[8]; SNCA-Tri, vs naive expression levels",7.5 fold
same,"α-syn mRNA, fold difference SNCA-Tri over control fibroblasts after PQ treatment",[8]; after PQ treatment,3.2 fold
same,increase of α-syn mRNA expression after PQ exposure,[9],2.6 fold
